Reference: patent publication US7632783B2 (priority 2004, dated 2009)

How the values were obtained:
[1] = system: rice blast (Pyricularia oryzae); format: in vivo; conditions: potted rice (variety Karakaze), spraying liquid 300 ppm after spore inoculation, observed 7 days after inoculation, levels 0 to 3
[2] = system: gray mold (Botrytis cinerea); assay: Tomato gray mold control test (preventive effects); format: in vivo; conditions: potted tomato (giant Fukuju variety), spraying liquid 300 ppm before spore inoculation, investigated 2 days after inoculation, levels 0 to 3
Description: Bulk drug was dissolved in a mixed solution of dimethylsulfoxide and methanol (volume ratio: 7/3), and spraying liquids containing 300 ppm of compounds of the present invention were uniformly sprayed onto potted test plants (tomato: giant Fukuju variety) in the second to third leaf stage. […], a suspension of pathogen spores were inoculated by spraying onto the pots in an inoculation room at a room temperature of 20 to 23° C. to promote the onset of disease. The degree of disease onset was investigated 2 days after inoculation. The test was carried out in duplicate.
Furthermore, the degree of disease onset was evaluated to one of four levels from 0 to 3 according to the criteria below by macroscopically observing the degree of disease onset of the test plants.
1: Degree of disease onset less than 40% of the untreated area
2: Degree of disease onset 40% to less than 80% of the untreated area
3: Degree of disease onset 80% or more

Compound	degree of disease onset [1]	degree of disease onset [2]
3-(5-fluoro-3,3-dimethyl-3,4-dihydroisoquinolin-1-yl)quinoline salicylate [Example 108]	0	0
CC1(C)Cc2c(F)cccc2C(c2cnc3ccccc3c2)=N1 [Example 2, 3-(5-fluoro-3,3-dimethyl-3,4-dihydroisoquinolin-1-yl)quinoline]	0	0
Cc1cccc2cc(C3=NC(C)(C)Cc4c(F)cccc43)cnc12 [Example 14, 3-(5-fluoro-3,3-dimethyl-3,4-dihydroisoquinolin-1-yl)-8-methylquinoline]	0	0
CC1(C)Cc2c(Cl)cccc2C(c2cnc3ccccc3c2)=N1 [Example 18, 3-(5-chloro-3,3-dimethyl-3,4-dihydroisoquinolin-1-yl)quinoline]	0	0
CC1(C)Cc2ccc(Cl)cc2C(c2cnc3ccccc3c2)=N1 [Example 21, 3-(7-chloro-3,3-dimethyl-3,4-dihydroisoquinolin-1-yl)quinoline]	0	0
CC1(C)Cc2c(Br)cccc2C(c2cnc3ccccc3c2)=N1 [Example 22, 3-(5-bromo-3,3-dimethyl-3,4-dihydroisoquinolin-1-yl)quinoline]	0	0
C#Cc1cccc2c1CC(C)(C)N=C2c1cnc2ccccc2c1 [Example 30, 3-(5-ethynyl-3,3-dimethyl-3,4-dihydroisoquinolin-1-yl)quinoline]	0	0
CC1(C)Cc2c(C#N)cccc2C(c2cnc3ccccc3c2)=N1 [Example 51, 3-(5-cyano-3,3-dimethyl-3,4-dihydroisoquinolin-1-yl)quinoline]	0	0
CC1(C)Cc2c(ccc(F)c2F)C(c2cnc3ccccc3c2)=N1 [Example 52, 3-(5,6-difluoro-3,3-dimethyl-3,4-dihydroisoquinolin-1-yl)quinoline]	0	0
CCC1(C)Cc2c(F)cccc2C(c2cnc3ccccc3c2)=N1 (stereo not shown) [Example 56, 3-(3-ethyl-5-fluoro-3-methyl-3,4-dihydroisoquinolin-1-yl)quinoline]	0	0
CCCC1(C)Cc2c(F)cccc2C(c2cnc3ccccc3c2)=N1 (stereo not shown) [Example 58, 3-(5-fluoro-3-methyl-3-propyl-3,4-dihydroisoquinolin-1-yl)quinoline]	0	0
CC1(CCl)Cc2ccccc2C(c2cnc3ccccc3c2)=N1 (stereo not shown) [Example 66, 3-(3-chloromethyl-3-methyl-3,4-dihydroisoquinolin-1-yl)quinoline]	0	0
CC1(C(F)(F)F)Cc2ccccc2C(c2cnc3ccccc3c2)=N1 (stereo not shown) [Example 68, 3-(3-trifluoromethyl-3-methyl-3,4-dihydroisoquinolin-1-yl)quinoline]	0	0
CC1(CC(F)(F)F)Cc2ccccc2C(c2cnc3ccccc3c2)=N1 (stereo not shown) [Example 69, 3-(3-trifluoroethyl-3-methyl-3,4-dihydroisoquinolin-1-yl)quinoline]	0	0
CC1(c2ccccc2)Cc2ccccc2C(c2cnc3ccccc3c2)=N1 (stereo not shown) [Example 71, 3-(3-methyl-3-phenyl-3,4-dihydroisoquinolin-1-yl)quinoline]	0	0
CC1(c2ccc(F)cc2)Cc2ccccc2C(c2cnc3ccccc3c2)=N1 (stereo not shown) [Example 72, 3-[3-(4-fluorophenyl)-3-methyl-3,4-dihydroisoquinolin-1-yl]quinoline]	0	0
CC1(c2ccc(Cl)cc2)Cc2ccccc2C(c2cnc3ccccc3c2)=N1 (stereo not shown) [Example 73, 3-[3-(4-chlorophenyl)-3-methyl-3,4-dihydroisoquinolin-1-yl]quinoline]	0	0
Fc1ccc(C2(CCl)Cc3ccccc3C(c3cnc4ccccc4c3)=N2)cc1 (stereo not shown) [Example 75, 3-[3-chloromethyl-3-(4-fluorophenyl)-3,4-dihydroisoquinolin-1-yl]quinoline]	0	0
CC1(Cc2ccccc2)Cc2ccccc2C(c2cnc3ccccc3c2)=N1 (stereo not shown) [Example 79, 3-(3-Benzyl-3-methyl-3,4-dihydroisoquinolin-1-yl)quinoline]	0	0

Compound	degree of disease onset [1]	degree of disease onset [2]
CC1(C)Cc2c(F)cccc2C(c2cnc3ccccc3c2)=N1.Cl [Example 103, 3-(5-fluoro-3,3-dimethyl-3,4-dihydroisoquinolin-1-yl)quinoline hydrochloride]	0	0
CC1(C)Cc2c(F)cccc2C(c2cnc3ccccc3c2)=N1.CS(=O)(=O)O [Example 107, 3-(5-fluoro-3,3-dimethyl-3,4-dihydroisoquinolin-1-yl)quinoline methanesulfonate]	0	0
CC1(C)Cc2c(F)cccc2C(c2cnc3ccccc3c2)=N1.O=C(O)/C=C/C(=O)O [Example 109, 3-(5-fluoro-3,3-dimethyl-3,4-dihydroisoquinolin-1-yl)quinoline fumarate]	0	0
CC1(C)N=C(c2cnc3ccccc3c2)c2cccc(F)c2C1(C)C [Example 114, 3-(5-fluoro-3,3,4,4-tetramethyl-3,4-dihydroisoquinolin-1-yl)quinoline]	0	0
CC1(C)N=C(c2cnc3ccccc3c2)c2ccc(Cl)cc2C1(C)C [Example 154, 3-(6-chloro-3,3,4,4-tetramethyl-3,4-dihydroisoquinolin-1-yl)quinoline]	–	0
CC1(C)N=C(c2cnc3ccccc3c2)c2cccc(F)c2C1(C)C.Cl [Example 156, 3-(5-fluoro-3,3,4,4-tetramethyl-3,4-dihydroisoquinolin-1-yl)quinoline hydrochloride]	0	0
CC1(C)N=C(c2cnc3ccccc3c2)c2cccc(F)c2C1(C)C.O=[N+]([O-])O [Example 158, 3-(5-fluoro-3,3,4,4-tetramethyl-3,4-dihydroisoquinolin-1-yl)quinoline nitrate]	0	0
CC1(C)N=C(c2cnc3ccccc3c2)c2cccc(F)c2C1(C)C.CS(=O)(=O)O [Example 159, 3-(5-fluoro-3,3,4,4-tetramethyl-3,4-dihydroisoquinolin-1-yl)quinoline methanesulfonate]	–	0
CC1(C)N=C(c2cnc3ccc(F)cc3c2)c2cccc(F)c2C1(C)C [Example 163, 3-(5-fluoro-3,3,4,4-tetramethyl-3,4-dihydroisoquinolin-1-yl)-6-fluoroquinoline]	0	0
CC1(C)N=C(c2cnc3c(F)cccc3c2)c2cccc(F)c2C1(C)C [Example 164, 3-(5-fluoro-3,3,4,4-tetramethyl-3,4-dihydroisoquinolin-1-yl)-8-fluoroquinoline]	0	0
Cc1cccc2cc(C3=NC(C)(C)C(C)(C)c4c(F)cccc43)cnc12 [Example 165, 3-(5-fluoro-3,3,4,4-tetramethyl-3,4-dihydroisoquinolin-1-yl)-8-methylquinoline]	0	0
CC1(C)N=C(c2cnc3ccccc3c2)c2cccc(F)c2C1F (stereo not shown) [Example 174, 3-(4,5-difluoro-3,3-dimethyl-3,4-dihydroisoquinolin-1-yl)quinoline]	0	0
C=C1c2c(F)cccc2C(c2cnc3ccccc3c2)=NC1(C)C [Example 175, 3-(5-fluoro-3,3-dimethyl-4-methylene-3,4-dihydroisoquinolin-1-yl)quinoline]	–	0
CC1(C)N=C(c2cnc3ccccc3c2)c2ccccc2C1(F)F [Example 177, 3-(4,4-difluoro-3,3-dimethyl-3,4-dihydroisoquinolin-1-yl)quinoline]	0	0
CC1(C)N=C(c2cnc3ccccc3c2)c2cccc(F)c2C1(F)F [Example 178, 3-(4,4,5-trifluoro-3,3-dimethyl-3,4-dihydroisoquinolin-1-yl)quinoline]	0	0
CN1C(c2cnc3ccccc3c2)c2cccc(F)c2C(C)(C)C1(C)C (stereo not shown) [Example 191, 3-(5-fluoro-2,3,3,4,4-pentamethyl-1,2,3,4-tetrahydroisoquinoline-1-yl)quinoline]	–	0
CC1(C)c2c(F)cccc2C2(c3cnc4ccccc4c3)ON2C1(C)C (stereo not shown) [Example 193, 5-fluoro-3,3,4,4-tetramethyl-8b-quinolin-3-yl-4,8b-dihydro-3H-oxazileno[3,2-a]isoquinoline]	0	0
CC1(C)c2ccccc2C2(c3cnc4ccccc4c3)ON2C1(C)C (stereo not shown) [Example 196, 3,3,4,4-tetramethyl-8b-quinolin-3-yl-4,8b-dihydro-3H-oxazileno[3,2-a]isoquinoline]	0	0
